One series deals with GBM#5. The series is described as follows: Survival studies in mice. In kind it is in vivo, mouse. Conditions: 50 mg kg^−1 iv, three times per week, n=7. From the text:
(§1) Survival of the animals was followed until the mice became morbid (physical and/or neurological symptoms), at which point, the animals were killed. Typically, mice became symptomatic several weeks to a few months after GSC implantation. Log-rank tests were used to compare the distribution of time to killing across groups and Kaplan–Meier curves were produced.

A further series relates to GBM#7. Briefly: Survival studies in mice. Conditions: 50 mg kg^−1 iv, three times per week, n=7. In kind it is in vivo, mouse.
From the text: as §1

Another series concerns GBM#8. Briefly: Survival studies in mice. In kind it is in vivo, mouse. The following applies: 50 mg kg^−1 iv, three times per week, n=7.
From the text: as §1

The nature of series [1]: Metabolic stability in liver microsomes. In kind it is in vitro ADME, human. The following applies: No inhibitor. How it is done: All samples were assayed in duplicate.
To identify cytochrome P450 enzymes responsible for PU-HZ151’s metabolism in human liver microsomes the following procedure was followed. Phosphate buffer (100 mM, pH 7.4) was prepared monthly and stored at 4 °C. Frozen stock solutions of human liver microsomes (Life Technologies; Cat# HMMCPL) were used once after thawing and were not refrozen. NADPH stock solution (50 mM) in distilled water was prepared fresh daily. Stock solutions of PU-HZ151 (1 mM in DMSO) and CYP inhibitors, furafylline (10 mM) for CYP1A2, tranylcypromine (2 mM) for CYP2A6, ketoconazole (1 mM) for CYP3A, troleandomycin (20 mM) for CYP3A4, orphenadrine (50 mM) for CYP2B6, montelukast (3 mM) for CYP2C8, sulfaphenazole (10 mM) for CYP2C9, benzylnirvanol (1 mM) for CYP2C19, quinidine (1 mM) for CYP2D6, and 1-aminobenzotriazole (1 mM) for all the P450 enzymes were stored at −20 °C. The stock solutions of these P450 inhibitors were prepared in DMSO. General procedure: PU-HZ151 (1 µM) was incubated with human liver microsomes (0.5 mg protein mL^−1), 2.5 mM NADPH, 3.3 mM magnesium chloride, and chemical inhibitors (various concentrations) in phosphate buffer (100 mM, pH 7.4) at 37 °C for up to 60 min. […] The concentration of the chemical inhibitors used in the assay were furafylline (10 μM), tranylcypromine (2 μM), ketoconazole (1 μM), troleandomycin (20 μM), orphenadrine (50 μM), montelukast (3 μM), sulfaphenazole (10 μM), benzylnirvanol (1 μM), quinidine (1 μM), and 1-aminobenzotriazole (1 mM) for all the P450 enzymes. Timing of the reactions was started following the addition of NADPH/magnesium chloride mix and PU-HZ151. Time-dependent chemical inhibitors (furafylline, troleandomycin, orphenadrine, and 1-aminobenzotriazole) were preincubated with human microsomes in the presence of NADPH and magnesium chloride for 15 min before the addition of PU-HZ151 and timing of reactions was started after addition of PU-HZ151. […]
For orientation: Liver microsomes are vesicles of endoplasmic reticulum, rich in cytochrome P450 enzymes.

The test system of the next series is all the P450 enzymes. Briefly: Cytochrome P450 profiling, 1-aminobenzotriazole. In kind it is in vitro ADME, human. The following applies: for % PU-HZ151 remaining: ABT. The procedure:
To identify cytochrome P450 enzymes responsible for PU-HZ151’s metabolism in human liver microsomes the following procedure was followed. Phosphate buffer (100 mM, pH 7.4) was prepared monthly and stored at 4 °C. Frozen stock solutions of human liver microsomes (Life Technologies; Cat# HMMCPL) were used once after thawing and were not refrozen. NADPH stock solution (50 mM) in distilled water was prepared fresh daily. […] The stock solutions of these P450 inhibitors were prepared in DMSO. […] The concentration of the chemical inhibitors used in the assay were furafylline (10 μM), tranylcypromine (2 μM), ketoconazole (1 μM), troleandomycin (20 μM), orphenadrine (50 μM), montelukast (3 μM), sulfaphenazole (10 μM), benzylnirvanol (1 μM), quinidine (1 μM), and 1-aminobenzotriazole (1 mM) for all the P450 enzymes. Timing of the reactions was started following the addition of NADPH/magnesium chloride mix and PU-HZ151. Time-dependent chemical inhibitors (furafylline, troleandomycin, orphenadrine, and 1-aminobenzotriazole) were preincubated with human microsomes in the presence of NADPH and magnesium chloride for 15 min before the addition of PU-HZ151 and timing of reactions was started after addition of PU-HZ151. […] Following brief vortexing and centrifugation, a 200 µL aliquot of the supernatant was transferred to a tube, and 10 µL of haloperidol (1 µg mL^−1) as internal standard was added. Following brief vortexing and centrifugation, 50 µL of supernatant was added to a 96-well plate for subsequent LC-MS/MS analysis. PU-HZ151 was similarly tested as above in the absence of CYP inhibitors for comparative purposes. All samples were assayed in duplicate. […] This was similarly performed for incubations of PU-HZ151 performed in the absence of CYP inhibitor.

Another series deals with MDA-MB-468 cells. The series is described as follows: Cell viability, ATP levels 72 h. In kind it is cell-based, human. The following applies: control MDA-MB-468 of Fig. 6f; mean.
The nature of series [2]: LC-MS/MS profile of brain and tumor extracts. The following applies: 1 h post-intravenous injection.

`CC(C)(C)CNCCn1c(Sc2cc3c(cc2I)OCO3)nc2c(N)ncnc21` [Compound 85]: the “survival vs vehicle, log-rank P” value in the series with GBM#5 worked out at 0.86; in the series with GBM#7, 0.0061; in the series with GBM#8 it was 0.21. Also, the “% PU-HZ151 remaining” value amounted to 52.7% in series [1] (15 min); 34.7% in series [1] (30 min); 17.2% in series [1] (60 min); 90.5% in the series on all the P450 enzymes (15 min); 83.9% with all the P450 enzymes (30 min); 79.6% with all the P450 enzymes (60 min). Further, the “inhibition of PU-HZ151 metabolism” value in the series with all the P450 enzymes (1-aminobenzotriazole) turned out to be 75%. The “%Survival of cells at day 0 (ATP levels)” value with MDA-MB-468 cells is listed as -90%. For the same compound, in series [2], the “species detected in lesions and brain” value is “only the intact PU-HZ151 molecule”.

The record behind these values is publication PMC8333062, “Chemical tools for epichaperome-mediated interactome dysfunctions of the central nervous system” (Nature Communications, 2021).
